Laboratory results from paper PMC5149029, “New Aspects of Silibinin Stereoisomers and their 3-O-galloyl Derivatives on Cytotoxicity and Ceramide Metabolism in Hep G2 hepatocarcinoma Cell Line” (Iranian Journal of Pharmaceutical Research : IJPR, 2016).

Test system: Hep G2 cells
Experiment: Quantifying of total ceramide (HPLC, NDA derivatisation)
Format: cell-based, human
Conditions: for Ceramide content with respect to control: Hep G2, 50 µM and higher concentrations
Procedure: The cell line was grown in RPMI-1640 medium supplemented with L-glutamine 2 mM, HEPESNa 25 mM, penicillin 100 U/mL, streptomycin 100 μg/mL and 10% […] (FBS) at 37 °C in a humidified atmosphere containing 5% CO2. Hep G2 cells were seeded at 1 × 10^6 cells/mL and sub cultured every 2–3 days after 60–80% confluence was reached. To prepare the lysates cells attached to the culture plate were scraped off with a cell scraper and collected in a 1.5 mL tube by centrifugation. The cell pellets were rinsed with PBS, suspended in sterile water, and then lysed by sonication. For each experiment, the cells were treated separately with increasing concentrations of silibinin derivatives (0, 25, 50, 75, 100, 125, 150, 175 and 200 μM) and incubated for 48 h.
Sample (3 µL of cell extract cell lysate) was mixed with 3 µL of an ACDase assay solution (0.2 M citrate–phosphate buffer, pH 4.5, 0.3 M NaCl, 0.2% Igepal CA-630, 10% FBS, 50 ng/µL ACDase) and incubated at 37 °C for 1 h. The reaction was stopped by adding ethanol (1:5) and centrifuged for 5 min at 13,000 × g. 10 µL of the supernatant was transferred into 20 µL of 25 mM sodium borate buffer (pH 9.0) containing 1.25 mM sodium cyanide and 1.25 mM NDA. The reaction mixture was incubated at 50 °C for 10min, diluted with ethanol (1:4), and centrifuged for 5 min at 13,000 × g. 5 µL of the supernatant was applied to high-performance liquid chromatography (HPLC) for analysis. The HPLC system consisted of Waters 600 S controller, 616 pump, 474 scanning fluorescence detector, 717 auto sampler (Waters, Milford, MA) and BetaBasic-C18 (20 cm × 4.6 mm) column with 3 µM particle size (Thermo Electron, Bellefonte, PA) which was not temperature regulated. All chromatographic procedures were carried out at room temperature using a mobile phase of 90% methanol at a flow rate of 1.0 mL/min. The fluorescent derivatives were monitored at the excitation wavelength of 252 nm and the emission wavelength of 483 nm ([35]). […]

| SMILES | Ceramide content with respect to control | Maximum ceramide level compared to control (Hep G2, 200 µM (the highest dose)) |
| --- | --- | --- |
| COc1cc([C@@H]2Oc3cc([C@H]4Oc5cc(O)cc(O)c5C(=O)[C@@H]4OC(=O)c4cc(O)c(O)c(O)c4)ccc3O[C@H]2CO)ccc1O [SGB, 3-O-galloyl silybin B] | significant rises | approximately 3.7 fold |
| COc1cc([C@H]2Oc3cc([C@H]4Oc5cc(O)cc(O)c5C(=O)[C@@H]4OC(=O)c4cc(O)c(O)c(O)c4)ccc3O[C@@H]2CO)ccc1O [SGA, 3-O-galloyl silybin A] | significant rises |  |
